Source: ChEMBL document CHEMBL5150069, “Solid-Phase Synthesis of Cereblon-Recruiting Selective Histone Deacetylase 6 Degraders (HDAC6 PROTACs) with Antileukemic Activity” (J Med Chem, 2022)
pEC50, pIC50: −log10 of the molar value. Activity calls are given as the source filed them. The calls are words filed in the database; no cut-off is given here.

Legend:
[1] = biological target: T1, Histone deacetylase 1 (Homo sapiens, UniProt Q13547); assay: Inhibition of recombinant full length C-terminal His/Flag-tagged human HDAC1 (1 to 482 residues) using Z-Lys(Ac)-AMC as substrate preincubated for 90 mins followed by trypsin addition and measured after 30 mins by fluorescence based microplate reader analysis
[2] = biological target: T2, Protein deacetylase HDAC6 (Homo sapiens, UniProt Q9UBN7); assay: Inhibition of recombinant full length N-terminal GST-tagged human HDAC6 (1 to 1215 residues) using Z-Lys(Ac)-AMC as substrate preincubated for 90 mins followed by trypsin addition and measured after 30 mins by fluorescence based microplate reader analysis
T2 sequence (Q9UBN7 whole entry): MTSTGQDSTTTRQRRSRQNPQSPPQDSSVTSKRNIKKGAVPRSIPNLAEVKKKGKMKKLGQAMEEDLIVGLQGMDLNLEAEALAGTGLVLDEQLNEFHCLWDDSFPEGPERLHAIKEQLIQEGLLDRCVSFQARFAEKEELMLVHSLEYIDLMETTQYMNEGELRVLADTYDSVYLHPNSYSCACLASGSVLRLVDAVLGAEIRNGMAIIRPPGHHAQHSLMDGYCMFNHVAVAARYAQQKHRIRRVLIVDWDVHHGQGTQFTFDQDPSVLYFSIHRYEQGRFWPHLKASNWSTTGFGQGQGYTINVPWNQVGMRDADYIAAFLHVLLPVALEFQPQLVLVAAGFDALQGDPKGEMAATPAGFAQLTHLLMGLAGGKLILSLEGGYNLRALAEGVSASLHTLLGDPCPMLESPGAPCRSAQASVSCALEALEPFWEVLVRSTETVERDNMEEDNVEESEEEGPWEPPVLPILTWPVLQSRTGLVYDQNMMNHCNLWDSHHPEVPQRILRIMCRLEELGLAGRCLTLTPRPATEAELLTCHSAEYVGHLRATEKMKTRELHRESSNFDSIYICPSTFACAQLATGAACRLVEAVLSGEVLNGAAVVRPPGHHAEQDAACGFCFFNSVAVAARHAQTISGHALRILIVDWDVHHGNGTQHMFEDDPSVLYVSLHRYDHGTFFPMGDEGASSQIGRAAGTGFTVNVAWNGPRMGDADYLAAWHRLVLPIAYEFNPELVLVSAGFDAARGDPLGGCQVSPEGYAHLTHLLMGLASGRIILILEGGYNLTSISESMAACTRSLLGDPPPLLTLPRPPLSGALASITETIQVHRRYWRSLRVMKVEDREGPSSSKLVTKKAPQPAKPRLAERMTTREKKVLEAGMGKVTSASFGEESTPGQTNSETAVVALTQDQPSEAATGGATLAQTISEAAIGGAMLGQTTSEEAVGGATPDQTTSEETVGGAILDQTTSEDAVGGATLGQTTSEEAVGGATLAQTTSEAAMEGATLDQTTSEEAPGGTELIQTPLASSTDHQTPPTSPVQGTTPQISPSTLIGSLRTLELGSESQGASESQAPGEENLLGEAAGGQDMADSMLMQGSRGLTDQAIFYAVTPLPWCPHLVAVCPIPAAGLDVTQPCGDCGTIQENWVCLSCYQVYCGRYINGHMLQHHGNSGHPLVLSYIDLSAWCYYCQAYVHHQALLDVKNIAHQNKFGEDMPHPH

[3] = biological target: T2, Protein deacetylase HDAC6; assay: Induction of HDAC6 degradation in human HL-60 cells assessed as hyperacetylation of alpha-tubulin after 6 hrs by Western immunoassay; type: cell-based
[4] = biological target: T3, Protein deacetylase HDAC6 (Homo sapiens) (UniProt Q9UBN7); assay: Induction of HDAC6 degradation in human U-266 cells at 100 to 1000 nM incubated for 24 hrs by Western blot analysis; type: cell-based; details: dose 100-1000 nM
T3 sequence (whole entry): T2 sequence (Q9UBN7 whole entry)

[5] = biological target: T3, Protein deacetylase HDAC6 (Homo sapiens); assay: Induction of HDAC6 degradation in human HL-60 cells assessed as maximum degradation after 6 hrs by Western immunoassay; type: cell-based
[6] = biological target: T2, Protein deacetylase HDAC6; assay: Induction of HDAC6 degradation in human HL-60 cells after 6 hrs by Western immunoassay; type: cell-based
[7] = biological target: T3, Protein deacetylase HDAC6 (Homo sapiens); assay: Induction of Hitbit-fused HDAC6 degradation in human K562 cells at 1 uM after 5.5 to 7.5 hrs by NanoGlo HiBit lytic assay; type: cell-based; details: time 5.5-7.5 hrs
[8] = biological target: T3, Protein deacetylase HDAC6 (Homo sapiens); assay: Induction of HDAC6 degradation in human U-266 cells assessed as hyperacetylation of alpha-tubulin at 100 to 1000 nM incubated for 24 hrs by Western blot analysis; type: cell-based; details: dose 100-1000 nM
[9] = biological target: T3, Protein deacetylase HDAC6 (Homo sapiens); assay: Induction of HDAC6 degradation in human HL-60 cells assessed as hyperacetylation of alpha-tubulin at 0.1 to 10 uM after 6 hrs by Western blot analysis; type: cell-based; details: dose 0.1-10 µM
[10] = biological target: T3, Protein deacetylase HDAC6 (Homo sapiens); assay: Induction of HDAC6 degradation in human HL-60 cells at 0.1 to 10 uM after 6 hrs by Western blot analysis; type: cell-based; details: dose 0.1-10 µM
[11] = tested on: MOLM-13; assay: Induction of cell cycle arrest in human MOLM-13 cells assessed as reduction in G2/M phase population incubated for 48 hrs by PI staining based flow cytometry analysis; type: functional; details: dose 8-24 µM, DDE = dose-dependent effect
[12] = tested on: MOLM-13; assay: Induction of cell cycle arrest in human MOLM-13 cells assessed as increase in sub-G1 phase population at 8 uM incubated for 48 hrs by PI staining based flow cytometry analysis (reference value: […]); type: functional
[13] = biological target: T1, Histone deacetylase 1; assay: Induction of HDAC1 degradation in human HL-60 cells assessed as hyperacetylation of histone H3 at 0.1 to 10 uM after 6 hrs by Western blot analysis; type: cell-based; details: dose 0.1-10 µM
[14] = tested on: MOLM-13; assay: Induction of cell cycle arrest in human MOLM-13 cells assessed as increase in sub-G1 phase population at 16 uM incubated for 48 hrs by PI staining based flow cytometry analysis (reference value: […]); type: functional
[15] = tested on: MOLM-13; assay: Cytotoxicity against human MOLM-13 cells assessed as reduction in cell viability incubated for 72 hrs by ATP based Celltiter-glo luminescent assay; type: functional; details: MOLM-13, 72 h
[16] = tested on: MOLM-13; assay: Induction of apoptosis in human MOLM-13 cells after 48 hrs by Annexin-V and PI staining based flow cytometry assay; type: functional, cell-based; details: dose 8-24 µM, DDE = dose-dependent effect
[17] = biological target: T3, Protein deacetylase HDAC6 (Homo sapiens); assay: Induction of HDAC6 degradation in human HL-60 cells at 100 nM after 6 hrs by fluorescence microscopy analysis; type: cell-based
[18] = tested on: MOLM-13; assay: Induction of cell cycle arrest in human MOLM-13 cells assessed as increase in sub-G1 phase population incubated for 48 hrs by PI staining based flow cytometry analysis; type: functional; details: dose 8-24 µM, DDE = dose-dependent effect
[19] = biological target: T3, Protein deacetylase HDAC6 (Homo sapiens); assay: Induction of HDAC6 degradation in human HL-60 cells at 1 uM after 3 to 6 hrs by fluorescence microscopy analysis; type: cell-based; details: time 3-6 hrs
[20] = biological target: T3, Protein deacetylase HDAC6 (Homo sapiens); assay: Induction of HDAC6 degradation in human HL-60 cells at 100 nM after 3 hrs by fluorescence microscopy analysis; type: cell-based
[21] = tested on: MOLM-13; assay: Induction of cell cycle arrest in human MOLM-13 cells assessed as increase in sub-G1 phase population at 24 uM incubated for 48 hrs by PI staining based flow cytometry analysis (reference value: […]); type: functional
[22] = biological target: T3, Protein deacetylase HDAC6 (Homo sapiens); assay: Induction of HDAC6 degradation in human HL-60 cells assessed as hyperacetylation of histone H3 at 1 uM after 24 hrs; type: cell-based

T1 sequence (Q13547 whole entry, the tested form may be a part): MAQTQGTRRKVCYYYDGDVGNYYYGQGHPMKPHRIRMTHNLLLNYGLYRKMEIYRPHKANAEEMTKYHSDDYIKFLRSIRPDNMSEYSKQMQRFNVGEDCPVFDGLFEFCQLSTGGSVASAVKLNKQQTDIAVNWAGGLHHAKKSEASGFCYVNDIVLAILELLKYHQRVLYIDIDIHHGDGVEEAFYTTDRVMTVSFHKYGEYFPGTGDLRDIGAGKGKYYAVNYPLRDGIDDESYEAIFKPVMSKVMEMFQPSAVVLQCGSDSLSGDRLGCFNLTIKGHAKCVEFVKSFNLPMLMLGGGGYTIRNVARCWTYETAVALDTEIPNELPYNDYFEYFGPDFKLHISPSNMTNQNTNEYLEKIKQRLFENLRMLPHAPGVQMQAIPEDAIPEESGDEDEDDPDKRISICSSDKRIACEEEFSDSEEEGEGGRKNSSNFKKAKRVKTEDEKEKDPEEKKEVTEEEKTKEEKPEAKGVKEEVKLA

For `O=C(CCCCCCNC(=O)c1ccc(NC(=O)CCOCCOCCOCCOCCNC(=O)COc2cccc3c2C(=O)N(C2CCC(=O)NC2=O)C3=O)cc1)NO` (stereo not drawn), the pIC50 [1] was 6.68 and the pIC50 [2] was 7.68.
In the case of `Cc1nc2cc(NC(=O)CCCCCCCNC(=O)COc3cccc4c3C(=O)N(C3CCC(=O)NC3=O)C4=O)ccc2n1Cc1ccc(C(=O)NO)cc1F` (stereo not drawn), the pEC50 [3] was 5.26, the Activity [4] was “Active” and the Emax [5] was 92.8%. The DC50 [6] was 19.4 nM, the Activity [7] was “Active” and the Activity [8] was “Active”. For the same molecule, the Activity [9] was “Active”, the pIC50 [1] was 6.19 and the pIC50 [2] was 6.19. For the same molecule, the Activity [10] was “Active”.
Molecule `Cc1nc2cc(NC(=O)CCOCCOCCOCCNC(=O)COc3cccc4c3C(=O)N(C3CCC(=O)NC3=O)C4=O)ccc2n1Cc1ccc(C(=O)NO)cc1F` (stereo not drawn) has a pIC50 [1] of 5.88 and a pIC50 [2] of 5.88.
`Cc1nc2cc(NC(=O)CCOCCOCCOCCOCCNC(=O)COc3cccc4c3C(=O)N(C3CCC(=O)NC3=O)C4=O)ccc2n1Cc1ccc(C(=O)NO)cc1F` (stereo not drawn) was tested, and the pIC50 [1] was 5.83 and the pIC50 [2] was 5.83.
Work on `Cc1nc2cc(NC(=O)CCOCCOCCOCCOCCNC(=O)CNc3cccc4c3C(=O)N(C3CCC(=O)NC3=O)C4=O)ccc2n1Cc1ccc(C(=O)NO)cc1F` (stereo not drawn) yielded a pIC50 [1] of 5.85 and a pIC50 [2] of 5.85.
For `O=C(CCCCCCNC(=O)c1ccc(NC(=O)COCCOCCNC(=O)COc2cccc3c2C(=O)N(C2CCC(=O)NC2=O)C3=O)cc1)NO` (stereo not drawn), the Activity [10] was “Active”.
`O=C(CCCCCCNC(=O)c1ccc(NC(=O)COCCNC(=O)COc2cccc3c2C(=O)N(C2CCC(=O)NC2=O)C3=O)cc1)NO` (stereo not drawn) gave a pIC50 [1] of 6.81 and a pIC50 [2] of 7.92.
For `O=C(CCCCCCNC(=O)c1ccc(NC(=O)CCCCCCCNC(=O)COc2cccc3c2C(=O)N(C2CCC(=O)NC2=O)C3=O)cc1)NO` (stereo not drawn), the Activity [11] was “Dde”, the Activity [4] was “Active” and the Emax [5] was 84.5%. For the same molecule, the Activity [12] was 7.5%, the Activity [13] was “Active” and the Activity [14] was 9.9%. For the same molecule, the pIC50 [15] was 4.76, the Activity [16] was “Dde” and the Activity [17] was “Active”. The Activity [18] was “Dde”, the Activity [7] was “Active” and the Activity [19] was “Active”. The Activity [8] was “Active”, the Activity [9] was “Active” and the Activity [20] was “Active”. The Activity [21] was 13.4%, the Activity [10] was “Active” and the Activity [22] was “Active”.
With `O=C(CCCCCCNC(=O)c1ccc(NC(=O)CCOCCOCCOCCNC(=O)COc2cccc3c2C(=O)N(C2CCC(=O)NC2=O)C3=O)cc1)NO` (stereo not drawn) the pIC50 [1] was 6.79 and the pIC50 [2] was 7.77.
`O=C(CCCCCCNC(=O)c1ccc(NC(=O)CCOCCOCCOCCOCCNC(=O)CNc2cccc3c2C(=O)N(C2CCC(=O)NC2=O)C3=O)cc1)NO` (stereo not drawn) showed a pIC50 [1] of 6.73 and a pIC50 [2] of 7.82.
